Test results published in patent publication US12635693B2, “Activated ferrate compositions and methods” (THE TEXAS A&M UNIVERSITY SYSTEM, priority 2020, dated 2026).

Assay: Removal (oxidation) of Carbamazepine (CBZ) by ferrate with or without amino acids, HPLC
Conditions: [ferrate]=100.0 μM
Method: (Experimental conditions: [CBZ]=5.0 μM, [ferrate]=100.0 μM, [amino acid]=100.0 μM, pH 9.0 (10.0 mM borate buffer), reaction time=1 min).
After certain reaction time, a 20.0 μL NH2OH solution (1 M, [NH2OH]: [ferrate]=10.0) was added to quench the reactions. Samples were transferred into high performance liquid chromatography (HPLC) vials and subsequently analyzed using the HPLC method. Each treatment was performed with triplicates and the mean removal values were reported.
Preliminary experiments were conducted to see the influence of amino acids (100.0 μM) on removal of CBZ (5.0 μM) by ferrate (100.0 μM) at pH 9.0 (10.0 mM borate buffer) after 1 min of oxidation. In these experiments, the solution of selected amino acids (FIG. 1) was mixed with CBZ, followed by addition of ferrate.

Compound	removal of CBZ (ferrate only (without proline), [CBZ]=5.0 μM, pH 9.0 (10.0 mM borate buffer), 80 min) [%]	oxidation of CBZ (molar ratio of proline to ferrate 1.0, within 90 s, pH 9.0) [%]
[O]=[Fe](=[O])([O-])[O-] [ferrate]	70	–
O=C(O)[C@@H]1CCCN1 [proline]	–	100
